Among the data in US12459974B2, “Bicyclic peptide ligands specific for Nectin-4” (priority 2018, dated 2025) are Ki values, retold here.

*1 amine or outer side, *2 acyl side, *3 side chain or, on linkers, in order; H or OH if unused. Where a SMILES comes first, the peptide text is derived from it. Bridges are numbered along the chain shown (N, C = ends). TATA = O=C(CC[*:1])N1CN(C(=O)CC[*:2])CN(C(=O)CC[*:3])C1

As a reminder, the Ki is a measure of affinity in units of concentration, obtained from inhibition or displacement.

The target of one experiment is T1, human Nectin-4 (Homo sapiens, UniProt Q96NY8).
T1 sequence (Q96NY8 32-510): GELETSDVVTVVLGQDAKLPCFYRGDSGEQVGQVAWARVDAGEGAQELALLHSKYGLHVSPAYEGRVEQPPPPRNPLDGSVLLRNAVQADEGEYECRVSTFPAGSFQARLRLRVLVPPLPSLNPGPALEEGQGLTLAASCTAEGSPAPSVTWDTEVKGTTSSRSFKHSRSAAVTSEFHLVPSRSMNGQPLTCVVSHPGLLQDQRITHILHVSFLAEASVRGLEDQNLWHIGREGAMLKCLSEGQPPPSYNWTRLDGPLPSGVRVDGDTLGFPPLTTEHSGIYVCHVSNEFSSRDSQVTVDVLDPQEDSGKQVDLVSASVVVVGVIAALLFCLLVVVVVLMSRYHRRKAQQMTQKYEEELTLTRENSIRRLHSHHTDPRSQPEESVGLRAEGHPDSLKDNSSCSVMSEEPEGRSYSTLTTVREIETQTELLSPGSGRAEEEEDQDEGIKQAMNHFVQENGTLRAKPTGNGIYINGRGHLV
As to the kind of experiment: Nectin-4 competition binding assay (fluorescence polarisation).
Details: not given
The procedure: Peptides were diluted to an appropriate concentration in assay buffer as described in the direct binding assay with a maximum of 5% DMSO, then serially diluted 1 in 2. Five μL of diluted peptide was added to the plate followed by 10 μL of human Nectin-4, then 10 μL fluorescent peptide added. Measurements were conducted as for the direct binding assay, however the gain was determined prior to the first measurement. Data analysis was in Systat Sigmaplot version 12.0 where the mP values were fit to a user defined cubic equation to generate a Ki value: • f=ymin+(ymax−ymin)/Lig*((Lig*((2*((Klig+Kcomp+Lig+Comp-Prot*c)^2-3*(Kcomp*(Lig-Prot*c)+Klig*(Comp-Prot*c)+Klig*Kcomp))^0.5*COS(ARCCOS((−2*(Klig+Kcomp+Lig+Comp-Prot*c)^3+9*(Klig+Kcomp+Lig+Comp-Prot*c)*(Kcomp*(Lig-Prot*c)+Klig*(Comp-Prot*c)+Klig*Kcomp)−27*(−1*Klig*Kcomp*Prot*c)/(2*((((Klig+Kcomp+Lig+Comp-Prot*c)^2−3*(Kcomp*(Lig-Prot*c)+Klig*(Comp-Prot*c)+Klig*Kcomp))^3)^0.5)))/3))−(Klig+Kcomp+Lig+Comp-Prot*c)))/((3*Klig)+((2*((Klig+Kcomp+Lig+Comp-Prot*c)^2−3*(Kcomp*(Lig-Prot*c)+Klig*(Comp-Prot*c)+Klig*Kcomp))^0.5*COS (ARCCOS ((−2*(Klig+Kcomp+Lig+Comp-Prot*c)^3+9*(Klig+Kcomp+Lig+Comp-Prot*c)*(Kcomp*(Lig-Prot*c)+Klig*(Comp-Prot*c)+Klig*Kcomp)-27*(−1*Klig*Kcomp*Prot*c))/(2*((((Klig+Kcomp+Lig+Comp-Prot*c)^2-3*(Kcomp*(Lig-Prot*c)+Klig*(Comp-Prot+c)+Klig*Kcomp))^3)^0.5))/3)−(Klig+Kcomp+Lig+Comp-Prot*c)))).
“Lig”, “KLig” and “Prot” were all defined values relating to: fluorescent peptide concentration, the Kd of the fluorescent peptide and Nectin concentration respectively.
As to `CC[C@H](C)[C@@H]1NC(=O)[C@@H]2CCCN2C(=O)[C@H](Cc2c[nH]c3ccccc23)NC(=O)[C@H](CO)NC(=O)[C@H](Cc2c[nH]c3ccccc23)NC(=O)[C@H](CC(N)=O)NC(=O)[C@H](CCCCN)NC(=O)[C@H](CCSC)NC(=O)[C@@H]2CSCCC(=O)N3CN(CN(C3)C(=O)CCSC[C@H](NC(=O)[C@H](C)N)C(=O)N3CCC[C@H]3C(=O)N[C@@H](Cc3ccccc3)C(=O)N[C@@H](C)C(=O)N2)C(=O)CCSC[C@@H](C(=O)N[C@H](C(=O)N[C@@H](CC(N)=O)C(=O)N[C@@H](CCCCN)C(N)=O)[C@@H](C)O)NC(=O)[C@H](Cc2c[nH]c3ccccc23)NC1=O` [BCY7354, A-(SEQ ID NO: 6)-TNK], the Ki came out at 884 nM.

Still in this experiment, the particulars now being: competition with fluorescent peptide SEQ ID NO: 217; read-out: Ki.
`CC[C@H](C)[C@@H]1NC(=O)[C@@H]2CCCN2C(=O)[C@H](Cc2c[nH]c3ccccc23)NC(=O)[C@H](CO)NC(=O)[C@H](Cc2c[nH]c3ccccc23)NC(=O)[C@H](CO)NC(=O)[C@H](CCCCN)NC(=O)[C@H](CCSC)NC(=O)[C@@H]2CSCCC(=O)N3CN(CN(C3)C(=O)CCSC[C@H](NC(=O)[C@H](CO)NC(=O)[C@H](CC(=O)O)NC(=O)[C@@H](N)Cc3c[nH]cn3)C(=O)N3CCC[C@H]3C(=O)N[C@@H](Cc3ccccc3)C(=O)NCC(=O)N2)C(=O)CCSC[C@@H](C(=O)N[C@@H](C)C(N)=O)NC(=O)[C@H](Cc2c[nH]c3ccccc23)NC1=O` [BCY3393, HDS-(SEQ ID NO: 51)-A] (H-HDSCPFGCMKSWSWPIWCA-NH2; linker 4-8-18 via TATA): the Ki came out at 173 nM. In the case of `CC[C@H](C)[C@@H]1NC(=O)[C@@H]2CCCN2C(=O)[C@H](Cc2c[nH]c3ccccc23)NC(=O)[C@H](CO)NC(=O)[C@H](Cc2c[nH]c3ccccc23)NC(=O)[C@H]([C@@H](C)O)NC(=O)[C@H](CCCCN)NC(=O)[C@H](CCSC)NC(=O)[C@@H]2CSCCC(=O)N3CN(CN(C3)C(=O)CCSC[C@H](NC(=O)[C@H](C)N)C(=O)N3CCC[C@H]3C(=O)N[C@@H](Cc3ccccc3)C(=O)NCC(=O)N2)C(=O)CCSC[C@@H](C(=O)N[C@H](C(=O)N[C@@H](CC(=O)O)C(=O)N[C@@H](CCCCN)C(N)=O)[C@@H](C)O)NC(=O)[C@H](Cc2c[nH]c3ccccc23)NC1=O` [BCY3394, A-(SEQ ID NO: 52)-TDK] (H-ACPFGCMKTWSWPIWCTDK-NH2; linker 2-6-16 via TATA; N-terminus and C-terminus assumed), the Ki stood at 102 nM.

As for `CC[C@H](C)[C@@H]1NC(=O)[C@@H]2CCCN2C(=O)[C@H](Cc2c[nH]c3ccccc23)NC(=O)[C@H](CO)NC(=O)[C@H](Cc2c[nH]c3ccccc23)NC(=O)CNC(=O)[C@H](CCCCN)NC(=O)[C@H](CCSC)NC(=O)[C@@H]2CSCCC(=O)N3CN(CN(C3)C(=O)CCSC[C@H](NC(=O)[C@H](C)N)C(=O)N3CCC[C@H]3C(=O)N[C@@H](Cc3ccccc3)C(=O)NCC(=O)N2)C(=O)CCSC[C@@H](C(=O)N[C@@H](CC(C)C)C(=O)N[C@@H](CCCCN)C(=O)N[C@@H](CC(=O)O)C(N)=O)NC(=O)[C@H](Cc2c[nH]c3ccccc23)NC1=O` [BCY3395, A-(SEQ ID NO: 53)-LKD] (H-ACPFGCMKGWSWPIWCLKD-NH2; linker 2-6-16 via TATA; N-terminus and C-terminus assumed), the inhibition constant Ki was 17.4 nM.

For `CC[C@H](C)[C@@H]1NC(=O)[C@@H]2CCCN2C(=O)[C@H](Cc2c[nH]c3ccccc23)NC(=O)[C@H](CO)NC(=O)[C@H](Cc2c[nH]c3ccccc23)NC(=O)[C@H](Cc2c[nH]cn2)NC(=O)[C@H](CCC(=O)O)NC(=O)[C@H](CCC(N)=O)NC(=O)[C@@H]2CSCCC(=O)N3CN(CN(C3)C(=O)CCSC[C@H](NC(=O)[C@H](C)N)C(=O)N3CCC[C@H]3C(=O)N[C@@H](Cc3ccccc3)C(=O)NCC(=O)N2)C(=O)CCSC[C@@H](C(=O)N[C@H](C(=O)N[C@H](C(=O)N[C@@H](C)C(N)=O)[C@@H](C)O)[C@@H](C)O)NC(=O)[C@H](Cc2c[nH]c3ccccc23)NC1=O` [BCY3396, A-(SEQ ID NO: 54)-TTA] (H-ACPFGCQEHWSWPIWCTTA-NH2; linker 2-6-16 via TATA; N-terminus and C-terminus assumed), the inhibition constant (Ki) came to 102 nM. In the case of `CC[C@H](C)[C@@H]1NC(=O)[C@@H]2CSCCC(=O)N3CN(CN(C3)C(=O)CCSC[C@H](NC(=O)[C@H](C)N)C(=O)N3CCC[C@H]3C(=O)N[C@@H](Cc3ccccc3)C(=O)NCC(=O)N2)C(=O)CCSC[C@@H](C(=O)N[C@@H](CCC(N)=O)C(=O)N[C@@H](CCSC)C(=O)N[C@@H](CCC(=O)O)C(N)=O)NC(=O)[C@H](Cc2c[nH]c3ccccc23)NC(=O)[C@H]([C@@H](C)CC)NC(=O)[C@@H]2CCCN2C(=O)[C@H](Cc2c[nH]c3ccccc23)NC(=O)[C@H](CO)NC(=O)[C@H](Cc2c[nH]c3ccccc23)NC(=O)[C@H](CO)NC(=O)[C@H](CCCCN)NC1=O` [BCY3397, A-(SEQ ID NO: 55)-QME] (H-ACPFGCIKSWSWPIWCQME-NH2; linker 2-6-16 via TATA; N-terminus and C-terminus assumed), the Ki came to 33.2 nM.

Regarding `CC[C@H](C)[C@@H]1NC(=O)[C@@H]2CCCN2C(=O)[C@H](Cc2c[nH]c3ccccc23)NC(=O)[C@H](CO)NC(=O)[C@H](Cc2c[nH]c3ccccc23)NC(=O)[C@H](CC(=O)O)NC(=O)[C@H](CCC(=O)O)NC(=O)[C@H](CCC(N)=O)NC(=O)[C@@H]2CSCCC(=O)N3CN(CN(C3)C(=O)CCSC[C@H](NC(=O)[C@H](C)N)C(=O)N3CCC[C@H]3C(=O)N[C@@H](Cc3ccccc3)C(=O)NCC(=O)N2)C(=O)CCSC[C@@H](C(=O)N[C@@H](CC(C)C)C(=O)N[C@@H](CO)C(=O)N[C@@H](CCC(=O)O)C(N)=O)NC(=O)[C@H](Cc2c[nH]c3ccccc23)NC1=O` [BCY3398, A-(SEQ ID NO: 56)-LSE] (H-ACPFGCQEDWSWPIWCLSE-NH2; linker 2-6-16 via TATA; N-terminus and C-terminus assumed), the inhibitory constant (Ki) amounted to 164 nM. Same read-out and setting: the result for `CC[C@H](C)[C@@H]1NC(=O)[C@@H]2CCCN2C(=O)[C@H](Cc2c[nH]c3ccccc23)NC(=O)[C@H](CO)NC(=O)[C@H](Cc2c[nH]c3ccccc23)NC(=O)[C@H](CC(=O)O)NC(=O)[C@H](CO)NC(=O)[C@H](CCSC)NC(=O)[C@@H]2CSCCC(=O)N3CN(CN(C3)C(=O)CCSC[C@H](NC(=O)[C@H](C)N)C(=O)N3CCC[C@H]3C(=O)N[C@@H](Cc3ccccc3)C(=O)NCC(=O)N2)C(=O)CCSC[C@@H](C(=O)N[C@@H](CO)C(=O)N[C@H](C(=O)N[C@@H](CC(=O)O)C(N)=O)[C@@H](C)O)NC(=O)[C@H](Cc2c[nH]c3ccccc23)NC1=O` [BCY3399, A-(SEQ ID NO: 57)-STD] (H-ACPFGCMSDWSWPIWCSTD-NH2; linker 2-6-16 via TATA; N-terminus and C-terminus assumed) reads 410 nM. As to `CC[C@H](C)[C@@H]1NC(=O)[C@H](CCCNC(=N)N)NC(=O)[C@@H]2CCCN2C(=O)[C@@H]2CSCCC(=O)N3CN(CN(C3)C(=O)CCSC[C@@H](C(=O)N3CCC[C@H]3C(=O)N[C@@H](CCC(N)=O)C(=O)N[C@@H](C)C(N)=O)NC1=O)C(=O)CCSC[C@H](NC(=O)[C@H](C)N)C(=O)N[C@@H](Cc1c[nH]c3ccccc13)C(=O)N1CCC[C@H]1C(=O)N[C@@H](CC(C)C)C(=O)N[C@@H](CC(=O)O)C(=O)N[C@@H](CC(=O)O)C(=O)N[C@@H](Cc1ccc(O)cc1)C(=O)N[C@@H](Cc1c[nH]c3ccccc13)C(=O)N2` [BCY3401, A-(SEQ ID NO: 58)-PQA] (H-ACWPLDDYWCPRICPQA-NH2; linker 2-10-14 via TATA; N-terminus and C-terminus assumed), the Ki stood at 154 nM. Same read-out and setting: the result for `CC[C@H](C)[C@@H]1NC(=O)[C@@H]2CCCN2C(=O)[C@H](Cc2c[nH]c3ccccc23)NC(=O)[C@H](CO)NC(=O)[C@H](Cc2c[nH]c3ccccc23)NC(=O)[C@H](CC(N)=O)NC(=O)[C@H](CCCCN)NC(=O)[C@H](CCSC)NC(=O)[C@@H]2CSCCC(=O)N3CN(CN(C3)C(=O)CCSC[C@H](NC(=O)[C@H](C)N)C(=O)N3CCC[C@H]3C(=O)N[C@@H](Cc3ccccc3)C(=O)NCC(=O)N2)C(=O)CCSC[C@@H](C(=O)N[C@H](C(=O)N[C@@H](CC(N)=O)C(=O)N[C@@H](C)C(N)=O)[C@@H](C)O)NC(=O)[C@H](Cc2c[nH]c3ccccc23)NC1=O` [BCY7348, A-(SEQ ID NO: 1)-TNA] reads 20.6 nM.
